What is called EC50 is the concentration that produces a half-maximal response. Higher therefore signals a need for much substance. The term IC50 denotes the concentration that gives 50% inhibition.

Molecules are shown by their SMILES. Bridge positions count the residues as written; N and C are the ends. Peptide text beside a SMILES is read from it.

Test [1] has as its system insulin-stimulated glycogen synthesis in soleus muscle. The test is described as follows: Soleus muscle assay. The test is classed as cell-based. Particulars: rat soleus muscle, inhibition of glucose incorporation into glycogen. Here is the method:
Concentrations of peptide dissolved in carrier-free buffers are determined by quantitative amino acid analysis, as described therein. The ability of compounds to act as agonists in this assay is determined by measuring EC50 values. […] Similar results were obtained with other agonist compounds listed above.

The target of another test is T1, amylin receptors (Rattus norvegicus, UniProt P32214+Q9JJ74).
T1 construct: This basal forebrain tissue, containing the nucleus accumbens and surrounding regions, was weighed and homogenized; from tissue; host or cells: rat basal forebrain (nucleus accumbens and surrounding regions) membranes
T1 sequence (P32214 25-516): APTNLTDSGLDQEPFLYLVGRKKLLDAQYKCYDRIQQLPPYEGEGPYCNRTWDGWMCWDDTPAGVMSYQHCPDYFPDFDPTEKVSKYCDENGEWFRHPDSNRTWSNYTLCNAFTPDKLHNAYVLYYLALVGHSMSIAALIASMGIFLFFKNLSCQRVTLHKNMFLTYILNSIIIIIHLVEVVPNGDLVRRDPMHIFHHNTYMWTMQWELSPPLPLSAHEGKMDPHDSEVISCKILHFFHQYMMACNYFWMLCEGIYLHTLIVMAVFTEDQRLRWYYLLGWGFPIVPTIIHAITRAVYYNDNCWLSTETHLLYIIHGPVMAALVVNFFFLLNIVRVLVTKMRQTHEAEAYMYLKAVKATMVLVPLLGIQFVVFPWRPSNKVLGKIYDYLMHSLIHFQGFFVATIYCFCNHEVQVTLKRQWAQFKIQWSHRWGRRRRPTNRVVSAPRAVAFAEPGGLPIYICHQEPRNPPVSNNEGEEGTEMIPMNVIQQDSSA
T1 sequence (Q9JJ74 27-148): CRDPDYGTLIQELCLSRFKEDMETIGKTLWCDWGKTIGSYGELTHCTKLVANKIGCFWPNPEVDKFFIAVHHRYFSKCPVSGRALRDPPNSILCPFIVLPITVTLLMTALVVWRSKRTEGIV
Description: Receptor binding assay (competition with 125I Bolton Hunter rat amylin, basal forebrain membranes). The source says:
A preferred source of the membrane preparations used in the assay is the basal forebrain which comprises membranes from the nucleus accumbens and surrounding regions.
Unlabeled peptides were obtained from BACHEM Inc. (Torrance, Calif.) and Peninsula Laboratories (Belmont, Calif.).
Male Sprague-Dawley rats (200-250) grams were sacrificed by decapitation. Brains were removed to cold phosphate-buffered saline (PBS). From the ventral surface, cuts were made rostral to the hypothalamus, bounded laterally by the olfactory tracts and extending at a 45° angle medially from these tracts. This basal forebrain tissue, containing the nucleus accumbens and surrounding regions, was weighed and homogenized in ice-cold 20 mM HEPES buffer (20 mM HEPES acid, pH adjusted to 7.4 with NaOH at 23° C.). […] The final membrane pellet was resuspended in 20 mM HEPES buffer containing 0.2 mM phenylmethylsulfonyl fluoride (PMSF).
Solutions were incubated for 60 minutes at 23° C. […] Filters were washed immediately before filtration with 5 ml cold PBS, and immediately after filtration with 15 ml cold PBS.

Turning to `CC[C@H](C)[C@H](NC(=O)[C@H](C)NC(=O)CNC(=O)[C@H](Cc1ccccc1)NC(=O)[C@H](CC(N)=O)NC(=O)[C@H](CC(N)=O)NC(=O)[C@H](CO)NC(=O)[C@H](CO)NC(=O)[C@H](Cc1c[nH]cn1)NC(=O)[C@@H](NC(=O)[C@H](CC(C)C)NC(=O)[C@H](Cc1ccccc1)NC(=O)[C@H](CC(N)=O)NC(=O)[C@H](C)NC(=O)[C@H](CC(C)C)NC(=O)[C@H](CCCNC(=N)N)NC(=O)[C@H](CCC(N)=O)NC(=O)[C@@H](NC(=O)[C@H](C)NC(=O)[C@@H]1CCCCNC(=O)C[C@H](NC(=O)[C@@H](N)CCCCN)C(=O)N[C@@H](CC(N)=O)C(=O)N[C@@H]([C@@H](C)O)C(=O)N[C@@H](C)C(=O)N[C@@H]([C@@H](C)O)C(=O)N1)[C@@H](C)O)C(C)C)C(=O)N[C@@H](CC(C)C)C(=O)N[C@@H](CO)C(=O)N[C@@H](CO)C(=O)N[C@H](C(=O)N[C@@H](CC(N)=O)C(=O)N[C@H](C(=O)NCC(=O)N[C@@H](CO)C(=O)N[C@@H](CC(N)=O)C(=O)N[C@H](C(=O)N[C@@H](Cc1ccc(O)cc1)C(N)=O)[C@@H](C)O)C(C)C)[C@@H](C)O` [^2,7Cyclo-[^2Asp,^7Lys]-h-Amylin] (H-KDNTATKATQRLANFLVHSSNNFGAILSSTNVGSNTY-NH2; lactam 2-7; N-terminus and C-terminus assumed), in test [1], a half-maximal effect (EC50) was put at 6.62 nM. Also, the IC50 on amylin receptors turned out to be 0.31 nM.

Source of the values: patent US7399744B2, “Methods for affecting body composition” (Amylin Pharmaceuticals, Inc., priority 2004, dated 2008).
